Earlier results on 1 compound are cited in patent publication US12310957B2, “Bowel cleansing composition” (priority 2013, dated 2025).

The data set concerns patients undergoing colonoscopy. The following applies: Nunes et al. 2008, scale proposed by the authors.

Molecules are shown by their SMILES.

With `OC[C@@H](O)[C@@H](O)[C@H](O)[C@H](O)CO` [mannitol], the “rate of adequate bowel cleansing” value is reported as 75%.
